Laboratory results: patent US20220411448A1, “CHROMENE-4-ONE DERIVATIVES AS BRAIN-DERIVED NEUROTROPHIC FACTOR (BDNF) MIMETICS” (FLORATEK PHARMA AG, priority 2019, published 2022)

Columns and labels:
TrkB receptor = experiment: Activation of TrkB receptor: phosphorylation in cortical neurons (WES capillary immunoassay); type: cell-based, mouse
Description: On the day of preparation (DIV1) cortical neurons were seeded on poly-D-lysine pre-coated 6-well plates at a density of 1.25*10^6 cells per well and cultured at 37° C.; 95% humidity and 5% CO2 until […] with a half medium exchange on DIV4-6. On DIV10 cells are treated with test item TI (SND118) and control Rh (7,8DHF) at different concentrations for 15 min. The experiment was carried out with n=6 technical replicates per condition, vehicle treated cells served as control. Cells were lysed in 150 μL cold RIPA buffer [50 mM Tris pH 7.4, 1% Nonidet P40, 0.25% Na-deoxy-cholate, 150 mM NaCl, 1 mM EDTA supplemented with freshly added 1 μM NaF, 0.2 mM Na-ortho-vanadate, 80 μM Glycerophosphate, protease (Calbiochem) and phosphatase (Sigma) inhibitor cocktail.
Phosphorylation of the TrkB receptor was detected using the following rabbit anti-Tyr specific antibodies: anti-TrkB Y515, Y706/707 and Y816 and compared with total TrkB detected with anti-TrkB antibody (Abcam). Antibody dilutions and protein amounts were optimized for signal specificity.
Automated separation and immunostaining of total and phospho TrkB was carried out using a capillary-based immunoassay, WES™ (Proteinsimple®). Samples were applied to a 25 capillary cartridge with a 2 to 440 kDa matrix, at an optimized total protein concentration. Sample loading, separation, immunoprobing, washing, detection and quantitative data analysis were performed automatically by WES™ Western system (Compass software V 4.0.0). The areas under the curve were used for the analysis and the phosphorylated versus vehicle or total TrkB signal ratio was calculated and used for statistics.

[1] = test system: organotypic hippocampal brain slices with IAA lesion; experiment: Organotypic brain slices, iodoacetic acid injury: cell survival (MTT); type: cell-based, mouse; conditions: SND118 10 and 30 μM; SND124 30 μM; 7,8 DHF 10 μm; IAA 250 μM for 110 min
Description: (§1) Preparation of the organotypic brain slices were performed by decapitation of the P9/P10 mouse pups, removing skin and skull and immersing brains in slicing medium (Opti-MEM 1, […]). Brains were hemisected and hippocampi were isolated. Hippocampi were placed on the cutting disc of a McIlwain Tissue Chopper. […] hippocampal slices were chopped transversely. A number of 4 slices per hippocampus were placed on porous (0.4 μM) transparent membrane inserts (Millipore) and incubated for 1 h on ice in HBSS containing 10 mM glucose. Afterwards inserts were transferred to fresh 24-well plates containing 250-300 μl culture medium (50% MEM/EBSS, 25% horse serum, 25% CMF-HBSS, 25 mM glucose, 0.5% pen/strep). Slices were maintained at 37° C. and 5% CO2.
(§2) On DV15, brain slices were pretreated with SND derivatives test compounds and the reference 7,8DHF at various concentrations (between […]) for 30 min, followed by the addition of iodoacetic acid (IAA) at 250 μM for 110 min, when cell survival, MMP and toxicity were measured.
Cell survival was measured by the MTT assay. For the determination of mitochondrial membrane potential, treated organotypic brain slices were loaded with the mitochondrial fluorescent dye, tetramethylrhodamine methyl ester (TMRM) at a final concentration of 100 nM in PBS and incubated for 45 min at 37° C. The TMRM containing solution was aspirated and slices were transferred into new well plates containing the appropriate amount of PBS. Fluorescence was measured with a plate-reader (Cytation 5) using wavelengths of excitation and emission of 548 and 574 nm, respectively (area scan). Values were calculated as percent of control values (vehicle control). Toxicity of the treatment was measured by LDH. No toxicity was observed.

[2] = test system: cortical neurons treated with glutamate; experiment: Neuron protection from glutamate injury: mitochondrial membrane potential (rhodamine 123); type: cell-based, rat
Description: (§3) Cortices were harvested from E19 rat embryos and dissociated enzymatically and mechanically. Dissociated cells were plated in poly-D-lysine coated imaging plates (384 wells), in 70 μL of neuronal growth medium (Neurocult Neuronal Basal medium+SM1 neuronal supplements+L-glutamine+HEPES). Cells were incubated at 37° C., 5% CO2 and half of the medium was changed twice per week.
For mitochondrial membrane potential measurement (MMP) neurons were cultured 10 to 14 days in vitro, the growth medium was discarded and wells were washed with 50 μL of extracellular saline. Saline was removed and replaced by 25 μL of staining solution (rhodamine 123 in a saline solution containing 1.5 mM Calcium, pyruvate and verapamil). The cells were incubated 30 min at 37° C./5% CO2. 5 μL of a staining solution with or without the test substances at 6× concentrated was added in the wells. […]
Glutamate was prepared 6× concentrated (6 μL on top of the 30 μL) in saline or saline+test compounds 1× concentrated depending on the conditions. […] Basal MMP levels were measured for 1 minute before automated addition of the compounds or controls while recording. MMP signals were further recorded for 30 minutes to 1 hour. […]
Rhodamine 123 is a cationic fluorescent dye that is used to specifically label respiring mitochondria. […] Loss of potential will result in loss of the dye and, therefore, the fluorescence intensity.

MAO-A = target: T1, MAO-A (Homo sapiens, UniProt P21397); experiment: In vitro inhibition of monoamine oxidase type A (BioVision MAO-A inhibitor screening kit); type: biochemical; conditions: read-out: IC50 in vitro inhibition of MOA-A enzyme
T1 construct: purchased BioVision K796
T1 sequence (P21397 1-527): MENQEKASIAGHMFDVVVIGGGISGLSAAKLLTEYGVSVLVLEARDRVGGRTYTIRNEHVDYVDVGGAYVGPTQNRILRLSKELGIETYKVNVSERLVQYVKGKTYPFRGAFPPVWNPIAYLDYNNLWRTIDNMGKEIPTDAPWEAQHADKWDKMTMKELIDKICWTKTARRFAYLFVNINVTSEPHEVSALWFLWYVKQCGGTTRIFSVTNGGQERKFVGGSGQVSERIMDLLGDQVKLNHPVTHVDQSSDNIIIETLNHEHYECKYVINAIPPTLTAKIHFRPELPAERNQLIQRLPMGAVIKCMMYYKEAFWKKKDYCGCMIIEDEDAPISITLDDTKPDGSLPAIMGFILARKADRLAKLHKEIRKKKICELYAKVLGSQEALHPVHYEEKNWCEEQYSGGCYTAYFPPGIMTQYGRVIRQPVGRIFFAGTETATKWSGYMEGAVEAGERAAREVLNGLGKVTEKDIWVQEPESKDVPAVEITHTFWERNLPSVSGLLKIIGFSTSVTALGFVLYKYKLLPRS
Description: BioVision's MAO-A inhibitor screening kit (BioVision Cat no. K796) was used to assess inhibitory effects of the test items (TIs) on MAO-A in a fluorescent assay.
The assay was carried out according to the provided protocol: TIs were diluted to 10× with MAO-A Assay Buffer before use. 10 μl of test inhibitor (S), working solution of Inhibitor Control (IC; Clorgyline, 1 μM final in the well) and MAO-A Assay Buffer (Enzyme Control; EC) were added into assigned wells. 50 μl of diluted MAO-A Enzyme Solution was added to each well and incubated for 10 min at RT. To check the possible inhibitory effect of TIs on Developer, one well with TI was prepared parallel and incubated with 50 μl of a H2O2 mix instead of the MAO-A Enzyme Solution.
The reaction was started by adding 40 μl of the prepared substrate mix. Measurement of the fluorescence (Ex/Em=535/587 nm) was done kinetically at 25° C. for 10-30 min. Two time points (t1 and t2) in the linear range of the plot were chosen for further calculations (2 min and 6 min). The slope for all Sample Compounds [S], Enzyme Control [EC], Vehicle Control [VC] and Background Control [BC] were calculated by dividing the net ARFU (RFU2-RFU1) values by the time Δt (t2−t1). The slope obtained for the Background Control reaction was subtracted from the [S], [EC] and [VC] values. […]

[3] = test system: organotypic hippocampal brain slices with IAA lesion; experiment: Organotypic brain slices, iodoacetic acid injury: mitochondrial membrane potential (TMRM); type: cell-based, mouse; conditions: SND118 10 and 30 μM; SND124 30 μM; IAA 250 μM for 110 min
Description: as §1, §2
Cell survival was measured by the MTT assay. […] Fluorescence was measured with a plate-reader (Cytation 5) using wavelengths of excitation and emission of 548 and 574 nm, respectively (area scan). Values were calculated as percent of control values (vehicle control). Toxicity of the treatment was measured by LDH. […]

[4] = test system: cortical neurons treated with glutamate; experiment: Neuron protection from glutamate injury: intracellular calcium measurement; type: cell-based, rat
Description: as §3
For Calcium measurement, the cells were cultured for 10 to 14 days in vitro, the growth medium was discarded and replaced by 25 μL of a calcium probe in a saline solution (containing 1.5 mM Calcium) for 30 min at 37° C./5% CO2. 5 μL of calcium probe in a saline solution with or without the test substances at 6× concentrated was added in the wells for the pre-treatment step. The wells were further incubated 30 min at 37° C./5% CO2
For calcium measurement, at the end of the pre-treatment, glutamate was prepared at 6× concentrated (6 μL on top of the 30 μL). The final vehicle concentration in all conditions was adjusted. Basal calcium levels was measured for 1 minute before automated addition of the compounds or controls while recording. Intracellular calcium signals was further recorded for 5 to 10 minutes at a sampling rate of around 1 point per second. Each experimental condition was tested in quadruplicate wells.

[5] = test system: primary cultures of cerebral cortical astrocytes; conditions: glutamate 200 μM, positive control; cited from earlier work

O=c1cc(-c2ccccc2)oc2c(O)c(O)ccc12 [7,8DHF, 7,8-dihydroxyflavone, reference compound]
phosphorylation of the TrkB receptor at sites Tyr 515 and Tyr 816 (TrkB receptor; 1 and 2 μM): induced a lower phosphorylation, which did not reach statistical significance
phosphorylation of TrkB at Tyr residue 706/707 versus the vehicle (TrkB receptor; SND118 2 μM): neither the derivative nor the 7,8DHF reached statistical significance
cell survival upon IAA lesion (MTT) [1]: no effect

C[C@]12N[C@H](Cc3ccccc31)c1ccccc12 [MK801, [(+)-5-methyl-10,11-dihydroxy-5H-dibenzo(a,d)cyclohepten-5,10-imine], reference compound]
mitochondria potential increased by glutamate (rhodamine 123) ([2]; MK801 10 μM, control compound): restored

CCNC(=O)Oc1ccc2c(=O)cc(-c3ccc(CCCC[P+](c4ccccc4)(c4ccccc4)c4ccccc4)cc3)oc2c1OC(=O)NCC.[Br-] [SND124, 4-[4-[7,8-Bis(ethylcarbamoyloxy)-4-oxo-chromen-2-yl]phenyl]-butyltriphenylphosphonium bromide]
IC50 (MAO-A): 20 µM
cell survival upon IAA lesion (MTT) [1]: statistically increase cell survival
mitochondria function (MMP, TMRM) after IAA lesion [3]: rescued mitochondria function

COc1c(O)ccc2c(=O)cc(-c3ccc(CCCC[P+](c4ccccc4)(c4ccccc4)c4ccccc4)cc3)oc12.[Br-] [SND135, (4-(4-(7-hydroxy-8-methoxy-4-oxo-4H-chromen-2-yl)phenyl)butyl)triphenylphosphonium bromide]
calcium release induced by glutamate ([4]; SND135 30 μM, glutamate 30 μM): decreased
calcium release induced by glutamate (maximum peak of calcium kinetic) ([4]; SND135 10 and 30 μM, glutamate 10 and 30 μM): decreases calcium release
mitochondria potential induced by glutamate (rhodamine 123) ([2]; SND135 between 3 and 30 μM, glutamate between 10 and 100 μM): decreases mitochondria potential

N[C@@H](CCC(=O)O)C(=O)O [glutamate]
increase of glucose entry [5]: 20 to 30%
